{
  "source": "patent US20120264231A1",
  "about": "“ASSAY FOR ORAI CALCIUM CHANNEL REGULATORS” (IMMUNE DISEASE INSTITUTE, INC., priority 2009, published 2012)",
  "key": {"[1]": {"test_system": "P pastoris cells that were not engineered to express ORAI3", "protocol": "(§1) Human ORAI3 was expressed in P. pastoris as described below. Then ^45Ca^2+ uptake was measured in a suspension of P. pastoris cells expressing ORAI3, after addition of 2-aminoethoxydiphenyl borate (2-APB), a compound known to activate ORAI3 expressed in mammalian cells.\n• Streaked out Pichia glycerol stock on RDB-plate • Grew 2-5 days at 30° C. (until colonies are large enough to easily remove) Seeded 5 mL MGY medium with 1 colony • Grew 2 days in 50 mL Falcon tube (cap partially unscrewed but taped on to allow aeration), 250 rpm, 30° C. • Seeded 50 mL MGY with the 5 mL culture (use a yeast-specific baffled flask; if scaled up, the volume of the culture was 1/10th the volume of the flask) • Grew o/n, 30° C., 250 rpm • At OD ˜2-3, spun down, checked OD and resuspended in MMY at an approximate OD of 6 (i.e., 6×5E7 cells/mL) • Grew 4 h at 28.5° C., 250 rpm, 28.5° C., with the top of the flask covered in gauze (not foil or a lid—a lot of aeration needed for induction. The temperature was under 30° C.) • Measured OD • Washed 3×25 mL in Solution A • Resuspended in Solution A for a final OD of 2 (1×10^8 cells/mL) […]"}, "human ORAI3": {"target": "human ORAI3 (Homo sapiens, UniProt Q9BRQ5)", "details": "for ^45Ca^2+ uptake (cpm): 75 μM 2-APB", "protocol": "as §1\nIndividual colonies were picked, and ORAI3 protein expression was induced by growth for eight hours in MMY medium (containing 0.5% methanol), whose formulation is given below. Cells were collected by centrifugation, and disrupted by vortexing in an Eppendorf tube with 0.5 mm glass beads. Beads, unbroken cells, and debris were removed by centrifugation at 5000 rpm in a benchtop centrifuge. The supernatant from that centrifugation was centrifuged at 100,000×g to pellet cell membranes. Cell membranes were resuspended, protein concentrations determined by Lowry or Bradford assay, and an equal amount of protein from each sample subjected to SDS-polyacrylamide gel electrophoresis and western blotting. The relative levels of Myc-ORAI3 expressed by individual colonies were compared by western blotting with antibody to the Myc tag. Colonies expressing relatively high levels of ORAI3 protein were used for the ^45Ca^2+ uptake assay.\n• Streaked out Pichia glycerol stock on RDB-plate • Grew 2-5 days at 30° C. (until colonies are large enough to easily remove) Seeded 5 mL MGY medium with 1 colony • Grew 2 days in 50 mL Falcon tube (cap partially unscrewed but taped on to allow aeration), 250 rpm, 30° C. • Seeded 50 mL MGY with the 5 mL culture (use a yeast-specific baffled flask; if scaled up, the volume of the culture was 1/10th the volume of the flask) • Grew o/n, 30° C., 250 rpm • At OD ˜2-3, spun down, checked OD and resuspended in MMY at an approximate OD of 6 (i.e., 6×5E7 cells/mL) • Grew 4 h at 28.5° C., 250 rpm, 28.5° C., with the top of the flask covered in gauze (not foil or a lid—a lot of aeration needed for induction. The temperature was under 30° C.) • Measured OD • Washed 3×25 mL in Solution A • Resuspended in Solution A for a final OD of 2 (1×10^8 cells/mL)\n• (Prepared everything else: 1 μCi/μL ^45CaCl2, 1 mL Solution S aliquots in tubes that can hold at least 2 mL, tips, etc.) • Spun sample (either 1 mL or the multiple-mL timepoint aliquot) down at 2000×g and resuspended in an equal volume of Solution C • (where applicable, added 2-APB or other things such as Solution S or lanthanum here. 75 μM 2-APB with Orai3.) • Added 1 μCi ^45CaCl2/Ml • Incubated as appropriate • When timepoint was taken, 1 mL sample (gently pipetted up and down, since Pichia settle) and added to 1 mL Solution S • Collected all samples • (This was repeated for each sample.) Presoaked 2.5 cm Whatman GF/F filter in place on the filter apparatus with 1 mL Solution S • Added the 2 mL sample/Solution S mix to the column • Turned on the vacuum and wash 3×15 mL with Solution W • Let filter dry under vacuum & removed to scintillation vial • Placed filter flat on the bottom of the vial, yeast-side up • Carefully added scintillation fluid • Counted in scintillation counter (^45Ca settings, if possible: window is 0-750, quench curve calibrations)"}, "STIM1−/− T cells": {"test_system": "STIM1−/− T cells", "experiment": "Single-cell [Ca2+]i measurement in STIM1−/− T cells expressing STIM1 fragments", "format": "cell-based, murine", "source_text": "To determine the competence of STIM 1 fragments to activate ORAI1 in mammalian cells, Myc-tagged STIM 1^CT and its truncated variants were introduced by retroviral expression into STIM1−/− T cells, and their ability to elevate resting Ca^2+ permeability was examined in cells loaded with Fura-2. As in human Jurkat T cells (Huang, G. N., et al., (2006); supra), expression of the soluble cytoplasmic portion of STIM 1 activated Ca^2+ influx into STIM1−/− murine T cells (FIG. 11). Elevated Ca^2+ permeability was evident in a marked increase in cytoplasmic [Ca^2+] on changing to medium containing 2 mM Ca^2+ after brief exposure to nominally Ca^2+-free medium. […] Retroviral vector alone conferred no constitutive influx above the level in control cells, as previously shown (Oh-hora, M., et al., (2008), supra).\nRetroviral expression plasmids encoding mouse STIM 1 and its cytoplasmic fragments (residues 233-685, 233-600, 233-498, or 233-463) were constructed by inserting the corresponding coding sequences between the XhoI and EcoRI sites of the vector pMSCV-CITE-eGFP-PGK-Puro (Clontech), which allows for coexpression of the inserted gene, GFP, and a puromycin resistance gene. GFP expression was used to estimate transducing efficiency.\nPrimary CD4^+ cells were purified from spleen and lymph nodes of Stim1^f1/f1 CD4-Cre^+ mice using Dynal magnetic beads (Invitrogen) following the manufacturer's instructions. Purified T cells were stimulated with anti-CD3 and anti-CD28, transduced with retroviruses obtained from transfected Phoenix packaging cells, and further expanded in IL-2-containing medium as described (Oh-hora, M., et al., Nat Immunol 9, 432-443 (2008); Ansel, K. M., et al., Nat Immunol 5, 1251-1259 (2004)). The transduction efficiency (>80%) was estimated by evaluating GFP expression using flow cytometry.\nRetrovirus-transduced CD4^+ cells isolated from Stim1^f1/f1 CD4-Cre^+ mice were incubated overnight in IL-2 free RPMI medium and loaded with 2 μM Fura-2-acetoxylmethyl ester (Invitrogen) for 45 min at ambient temperature in the dark. T cells were further attached to coverslips precoated with 0.01% poly-L-lysine, mounted to a RC-20 closed-bath flow chamber (Warner Instrument), and bathed in Ringer's solution (155 mM NaCl, 4.5 mM KCl, 2 mM CaCl2, 1 mM MgCl2, 10 mM D-glucose and 5 mM HEPES, pH 7.4). For nominally Ca^2+-free Ringer's solution CaCl2 was replaced with MgCl2. After 5 minutes of equilibration in Ringer's solution, [Ca^2+]i measurement commenced with ˜3 min perfusion of T cells with Ca^2+-free Ringer's solution at ambient temperature, followed by perfusion of Ringer's solution containing 2 mM CaCl2. The cycle was repeated once with final addition of Ringer's solution supplemented with 2 μM LaCl3 to block Ca^2+ flux. Images were acquired using a Zeiss Axiovert S200 epifluorescence microscope and OpenLab imaging analysis software (Improvision). The fluorescence data (F340 nm/F380 nm) were collected every 4 s and analyzed as described (Oh-hora, M., et al., (2008), supra; Feske, S., et al., Nature 441, 179-185 (2006)). In each experiment, for each experimental condition, 50-100 GFP-positive CD4+ T cells were analyzed."}, "ORAI1 (E106Q)": {"target": "ORAI1 (E106Q) (Homo sapiens, UniProt Q96D31, E106Q)", "sequence (Q96D31 65-301 E106Q)": "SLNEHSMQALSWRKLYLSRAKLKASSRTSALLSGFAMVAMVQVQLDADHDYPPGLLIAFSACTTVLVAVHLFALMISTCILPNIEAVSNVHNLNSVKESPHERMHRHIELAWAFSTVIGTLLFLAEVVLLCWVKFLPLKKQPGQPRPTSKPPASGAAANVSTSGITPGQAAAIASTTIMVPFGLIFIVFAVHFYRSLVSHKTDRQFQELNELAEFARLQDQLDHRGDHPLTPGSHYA", "experiment": "Tb3+ luminescence resonance energy transfer, lanthanide binding to ORAI1", "design": "Human ORAI1 (65-301) with an N-terminal FLAG tag was subcloned into the pPIC3.5K vector; made in house; host or cells: Pichia pastoris (membranes)", "protocol": "Tb3+ luminescence resonance energy transfer (Tb3+-LRET) experiments were performed on a FluoroLog®-3 spectrofluorometer (HORIBA Scientific) with a 1-cm lengthpath cuvette at ambient temperature. Emission spectra were collected from 500 to 600 nm with the excitation set at 282 nm, or at 295 nm to minimize the contribution from tyrosine. The slit widths for excitation and emission were set at 4 nm and 8 nm, respectively. A glass filter with cutoff of ˜320 nm was used to circumvent light scattering. […] Spectra from membranes lacking ORAI1, with the same total membrane protein content, served as negative control.\nIn each case, a scan of luminescence emission from membrane suspension alone was obtained, then Tb3+ was added into the cuvette and a second scan was performed (FIG. 12). Protein content of the two samples was the same. The presence of equivalent amounts of membrane microsomes was also evidenced by identical light scattering in the two cases prior to addition of Tb3+. Characteristic Tb3+ emission peaks at 547 nm and 589 nm were prominent in the ORAI sample, attributable to energy transfer from one or more of the native tryptophan residues of the protein."}, "[2]": {"target": "endogenous CRAC channels (ORAI1) of STIM1-/- murine T cells (mouse) (UniProt Q8BWG9)", "sequence (Q8BWG9 whole entry)": "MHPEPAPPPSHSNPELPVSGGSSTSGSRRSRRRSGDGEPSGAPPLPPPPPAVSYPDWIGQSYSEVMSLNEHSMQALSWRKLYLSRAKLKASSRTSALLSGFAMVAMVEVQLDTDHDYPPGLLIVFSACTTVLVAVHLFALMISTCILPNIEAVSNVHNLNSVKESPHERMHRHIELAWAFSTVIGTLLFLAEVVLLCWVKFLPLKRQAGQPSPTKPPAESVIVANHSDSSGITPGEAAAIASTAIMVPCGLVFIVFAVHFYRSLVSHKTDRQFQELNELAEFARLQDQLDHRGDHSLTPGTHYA", "experiment": "cell-based or functional assay"}},
  "note": "Like-named read-outs stand apart in the source and are kept apart here.",
  "data": [
    {"compound": "NCCOB(c1ccccc1)c1ccccc1", "note": "[2-APB, 2-aminoethoxydiphenyl borate]", "values": [
      {"measurement": "effect on ^45Ca^2+ uptake", "setting": "[1]", "value": "did not have this effect"},
      {"measurement": "rate and extent of ^45Ca^2+ uptake", "setting": "human ORAI3; 75 μM 2-APB versus control suspensions without 2-APB", "value": "increased"},
      {"measurement": "^45Ca^2+ uptake (cpm)", "setting": "human ORAI3; 0.5 min", "value": 2729.9, "unit": "cpm"},
      {"measurement": "^45Ca^2+ uptake (cpm)", "setting": "human ORAI3; 1 min", "value": 3137.3, "unit": "cpm"},
      {"measurement": "^45Ca^2+ uptake (cpm)", "setting": "human ORAI3; 2 min", "value": 4662.1, "unit": "cpm"},
      {"measurement": "^45Ca^2+ uptake (cpm)", "setting": "human ORAI3; 4 min", "value": 6019.2, "unit": "cpm"},
      {"measurement": "^45Ca^2+ uptake (cpm)", "setting": "human ORAI3; ~0.25 min", "value": 1913.5, "unit": "cpm"}
    ]},
    {"compound": "[Cl][La]([Cl])[Cl]", "note": "[La^3+, LaCl3, reference compound]", "values": [
      {"measurement": "cytoplasmic [Ca^2+] upon exposure to La^3+", "setting": "STIM1−/− T cells; 2 μM LaCl3, continuing presence of external Ca^2+", "value": "rapid decline"}
    ]},
    {"compound": "[Tb+3]", "note": "[Tb3+]", "values": [
      {"measurement": "Tb3+ emission peaks at 547 nm and 589 nm", "setting": "ORAI1 (E106Q); Pichia membranes containing ORAI1 (E106Q), Tb3+ 10-50 μM", "value": "prominent"},
      {"measurement": "Tb3+-LRET signal", "setting": "ORAI1 (E106Q); solubilized ORAI1", "value": "specific Tb3+-LRET signal"}
    ]},
    {"compound": "Myc-tagged STIM1^CT (mouse STIM1 233-685) expressed by retrovirus in STIM1-/- T cells (from UniProt P70302 233-685)", "values": [
      {"measurement": "steepest rise of cytoplasmic [Ca^2+] (Fura-2, single cells)", "setting": "[2]", "value": 15, "unit": "nM/s"}
    ]},
    {"compound": "STIM1 (233-600): truncated mouse STIM1 cytoplasmic fragment, residues 233-600", "values": [
      {"measurement": "maximum levels of cytoplasmic Ca^2+", "setting": "STIM1−/− T cells; compared with STIM1^CT", "value": "somewhat less than with STIM1^CT"},
      {"measurement": "rate of rise of cytoplasmic Ca^2+", "setting": "STIM1−/− T cells; compared with STIM1^CT", "value": "nearly comparable to the rate with STIM 1^CT"},
      {"measurement": "constitutive Ca^2+ influx", "setting": "STIM1−/− T cells; retroviral expression, Fura-2", "value": "activated a prominent constitutive Ca^2+ influx"}
    ]}
  ]
}
